# Data from US11008317B2, “Triazolopyridine inhibitors of myeloperoxidase and/or EPX” (priority 2016, dated 2021).
# pIC50: −log10 of the molar value.
# Legend:
# myeloperoxidase [1] = target: T1, myeloperoxidase (Homo sapiens, UniProt P05164); assay: MPO Peroxidation Assay (Amplex Red Assay); type: biochemical; conditions: potency range class, read-out: Amplex Red Assay IC50 value
# T1 sequence (P05164 49-745): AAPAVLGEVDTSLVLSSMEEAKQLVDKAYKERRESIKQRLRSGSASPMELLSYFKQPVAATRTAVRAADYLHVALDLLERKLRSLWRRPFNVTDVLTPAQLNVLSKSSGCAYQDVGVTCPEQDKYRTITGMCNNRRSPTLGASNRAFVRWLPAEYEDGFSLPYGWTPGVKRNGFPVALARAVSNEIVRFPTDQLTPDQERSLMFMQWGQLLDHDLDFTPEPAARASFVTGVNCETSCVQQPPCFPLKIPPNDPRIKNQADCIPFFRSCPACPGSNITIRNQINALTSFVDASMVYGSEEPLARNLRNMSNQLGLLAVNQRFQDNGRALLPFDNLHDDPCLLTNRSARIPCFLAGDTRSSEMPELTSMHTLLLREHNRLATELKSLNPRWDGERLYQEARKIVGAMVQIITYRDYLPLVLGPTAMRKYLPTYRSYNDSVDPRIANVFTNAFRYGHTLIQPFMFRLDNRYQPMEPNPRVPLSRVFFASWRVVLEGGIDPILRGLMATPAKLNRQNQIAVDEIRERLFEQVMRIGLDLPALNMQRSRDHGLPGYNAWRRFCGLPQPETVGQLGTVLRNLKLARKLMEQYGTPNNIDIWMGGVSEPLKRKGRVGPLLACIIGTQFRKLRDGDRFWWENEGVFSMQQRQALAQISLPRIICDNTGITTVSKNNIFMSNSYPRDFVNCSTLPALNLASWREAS
# myeloperoxidase [2] = target: T1, myeloperoxidase; assay: MPO Chlorination Assay (APF Assay); type: biochemical; conditions: potency range class, read-out: APF Assay IC50 value
SMILES,pIC50 (myeloperoxidase [1]),pIC50 (myeloperoxidase [2])
"NC(=O)c1cccc(CNCCC(c2ccccc2)c2cc(N)nc3[nH]nnc23)c1 (stereo not shown) [Example 70, 3-{[(3-{5-amino-3H-[1,2,3]triazolo[4,5-b]pyridin-7-yl}-3-phenylpropyl)amino]methyl}hbenzamide]",6.00 to 7.00,6.00 to 7.00
"COCCN(CC[C@H](c1ccccc1)c1cc(N)nc2[nH]nnc12)C12CCC(c3ccccc3)(CC1)CC2 [Example 196, 7-[(1R)-3-[(2-methoxyethyl)({4-phenylbicyclo[2.2.2]octan-1-yl})amino]-1-phenylpropyl]-3H-[1,2,3]triazolo[4,5-b]pyridin-5-amine]",6.00 to 7.00,7.00 to 9.00
"Nc1cc([C@H](Cc2nc3c(-c4ccccc4)cc(C(F)(F)F)cc3[nH]2)c2ccccc2)c2nn[nH]c2n1 [Example 248, (R)-7-(1-phenyl-2-(4-phenyl-6-(trifluoromethyl)-1H-benzo [d]imidazol-2-yl)ethyl)-3H-[1,2,3] triazolo[4,5-b] pyridin-5-amine]",6.00 to 7.00,7.00 to 9.00
"COC1CC2(NCCC(c3ccccc3)c3cc(N)nc4[nH]nnc34)CCC1(c1ccccc1)CC2 (stereo not shown) [Example 148, 7-[3-({3-methoxy-4-phenylbicyclo [2.2.2]octan-1-yl}amino)-1-phenylpropyl]-3H-[1,2,3]triazolo[4,5-b]pyridin-5-amine]",7.00 to 9.00,7.00 to 9.00
"Nc1cc([C@H](Cc2nc3c(-c4ccccc4Cl)cccc3[nH]2)c2ccccc2)c2nn[nH]c2n1 [Example 260, (R)-7-(2-(4-(2-chlorophenyl)-1H-benzo[d]imidazol-2-yl)-1-phenylethyl)-3H-[1,2,3]triazolo [4,5-b]pyridin-5-amine]",5.00 to 6.00,6.00 to 7.00
"Nc1cc(C(CCNCc2ccccc2Cc2ccccc2)c2ccccc2)c2nn[nH]c2n1 (stereo not shown) [Example 63, 7-(3-{[(2-benzylphenyl)methyl]amino}-1-phenylpropyl)-3H-[1,2,3]triazolo[4,5-b]pyridin-5-amine]",6.00 to 7.00,7.00 to 9.00
"Nc1cc(C(CCN[C@H]2CC[C@H](c3ccccc3)CC2)c2ccccc2F)c2nn[nH]c2n1 (stereo partly drawn) [Example 157, 7-[1-(2-fluorophenyl)-3-{[(trans)-4-phenylcyclohexyl]amino}propyl]-3H-[1,2,3]triazolo [4,5-b]pyridin-5-amine]",6.00 to 7.00,7.00 to 9.00
"Nc1cc([C@H](CCN(CC2CCO2)C23CCC(c4ccccc4)(CC2)CC3)c2ccccc2)c2nn[nH]c2n1 (stereo partly drawn) [Example 193, 7-[(1R)-3-{[(oxetan-2-yl)methyl]({4-phenylbicyclo [2.2.2]octan-1-yl})amino}-1-phenylpropyl]-3H-[1,2,3]triazolo[4,5-b]pyridin-5-amine]",7.00 to 9.00,7.00 to 9.00
"Nc1cc(C(CCNCCCc2ccccc2)c2ccccc2)c2nn[nH]c2n1 (stereo not shown) [Example 106, 7-{1-phenyl-3-[(3-phenylpropyl)amino]propyl}-3H-[1,2,3] triazolo[4,5-b] pyridin-5-amine]",6.00 to 7.00,6.00 to 7.00
"Nc1cc(C(CCNC2CCC(c3ccc(F)cc3)CC2)c2ccccc2)c2nn[nH]c2n1 (stereo not shown) [Example 112, 7-(3-{[4-(4-fluorophenyl)cyclohexyl]amino}-1-phenylpropyl)-3H-[1,2,3]triazolo [4,5-b]pyridin-5-amine]",6.00 to 7.00,6.00 to 7.00
"Nc1cc([C@H](CC(=O)NC23CCC(c4ccccc4)(CC2)CC3)c2cccc(O)c2)c2nn[nH]c2n1 [Example 202, (3R)-3-{5-amino-3H-[1,2,3]triazolo[4,5-b]pyridin-7-yl}-3-(3-hydroxyphenyl)-N-{4-phenylbicyclo [2.2.2]octan-1-yl} propanamide]",6.00 to 7.00,7.00 to 9.00
"Nc1cc([C@H](Cc2nc3c(-c4ccc(Cl)cc4)cccc3[nH]2)c2ccccc2)c2nn[nH]c2n1 [Example 253, (R)-7-(2-(4-(4-chlorophenyl)-1H-benzo[d]imidazol-2-yl)-1-phenylethyl)-3H-[1,2,3]triazolo [4,5-b] pyridin-5-amine]",5.00 to 6.00,7.00 to 9.00
"CC1C[C@@H](NCCC(c2ccccc2)c2cc(N)nc3[nH]nnc23)c2ccccc21 (stereo partly drawn) [Example 98, 7-(3-{[(1R)-3-methyl-2,3-dihydro-1H-inden-1-yl]amino}-1-phenylpropyl)-3H-[1,2,3]triazolo [4,5-b] pyridin-5-amine]",6.00 to 7.00,7.00 to 9.00
"Nc1cc(C(CCNC2CC(c3ccccc3)C2)c2ccccc2)c2nn[nH]c2n1 (single isomer, unassigned) [Example 81, 7-{1-phenyl-3-[(3-phenylcyclobutyl)amino]propyl}-3H-[1,2,3]triazolo[4,5-b] pyridin-5-amine]",5.00 to 6.00,7.00 to 9.00
"Nc1cc(C(CCNCc2ccc3ccccc3c2)c2ccccc2)c2nn[nH]c2n1 (stereo not shown) [Example 16, 7-(3-{[(naphthalen-2-yl)methyl]amino}-1-phenylpropyl)-3H-[1,2,3]triazolo[4,5-b] pyridin-5-amine]",6.00 to 7.00,7.00 to 9.00
"Nc1cc(C(CCCN2CCC(Cc3ccccc3)CC2)c2ccccc2)c2nn[nH]c2n1 (stereo not shown) [Example 213, 7-[4-(4-benzylpiperidin-1-yl)-1-phenylbutyl]-3H-[1,2,3]triazolo [4,5-b]pyridin-5-amine]",6.00 to 7.00,6.00 to 7.00
"Nc1cc([C@H](CC(=O)NC2CCC(c3ccccc3)c3ccccc32)c2ccccc2)c2nn[nH]c2n1 (stereo partly drawn) [Example 203, (3R)-3-{5-amino-3H-[1,2,3]triazolo[4,5-b]pyridin-7-yl}-3-phenyl-N-(4-phenyl-1,2,3,4-tetrahydronaphthalen-1-yl)propanamide]",5.00 to 6.00,6.00 to 7.00
"Nc1cc(C(CCNCc2cccc(C(F)(F)F)c2)c2ccccc2)c2nn[nH]c2n1 (stereo not shown) [Example 53, 7-[1-phenyl-3-({[3-(trifluoromethyl)phenyl]methyl}amino)propyl]-3H-[1,2,3]triazolo[4,5-b]pyridin-5-amine]",6.00 to 7.00,6.00 to 7.00
"Nc1cc(C(CCNC2CCC(c3ccc(F)cc3)CC2)c2ccccc2)c2nn[nH]c2n1 (stereo not shown) [Example 125, 7-(3-{[4-(4-fluorophenyl)cyclohexyl]amino}-1-phenylpropyl)-3H-[1,2,3]triazolo[4,5-b]pyridin-5-amine]",6.00 to 7.00,7.00 to 9.00
"Nc1cc(C(CCN[C@@H]2CC[C@@H](c3ccccc3)C[C@@H]2CO)c2ccccc2)c2nn[nH]c2n1 (stereo partly drawn) [Example 180, [(1S,2R,5R)-2-[(3-{5-amino-3H-[1,2,3]triazolo[4,5-b]pyridin-7-yl}-3-phenylpropyl)amino]-5-phenylcyclohexyl] methanol]",6.00 to 7.00,7.00 to 9.00
"Nc1cc(C(CCNCCc2ccccc2)c2ccccc2)c2nn[nH]c2n1 (stereo not shown) [Example 109, 7-{1-phenyl-3-[(2-phenylethyl)amino]propyl}-3H-[1,2,3] triazolo[4,5-b] pyridin-5-amine]",6.00 to 7.00,6.00 to 7.00
"Nc1cc(C(CCNC2(CO)CCC(c3ccccc3)CC2)c2ccccc2)c2nn[nH]c2n1 (stereo not shown) [Example 116, {1-[(3-{5-amino-3H-[1,2,3]triazolo[4,5-b]pyridin-7-yl}-3-phenylpropyl)amino]-4-phenylcyclohexyl} methanol]",6.00 to 7.00,7.00 to 9.00
"CC(C)(Cc1ccccc1)NCCC(c1ccccc1)c1cc(N)nc2[nH]nnc12 (stereo not shown) [Example 119, 7-{3-[(2-methyl-1-phenylpropan-2-yl)amino]-1-phenylpropyl}-3H-[1,2,3]triazolo [4,5-b]pyridin-5-amine]",6.00 to 7.00,7.00 to 9.00
